# From patent US20180214395A1 (priority 2017, published 2018)
# Experiment: SAD study: cardiac safety (ECG, telemetry, QTcF prolongation)
structure (smiles),measurement,setting,value
CCC(=O)C(C[C@H](C)N(C)C)(c1ccccc1)c1ccccc1 [d-methadone],"Overall ECG result Abnormal, NCS","5 mg (N = 6), 0.5 h",0 n (%)
same,Overall ECG result Normal,"5 mg (N = 6), 0.5 h",6 n (%)
same,"Overall ECG result Abnormal, NCS","5 mg (N = 6), 1 h",1 n (%)
same,Overall ECG result Normal,"5 mg (N = 6), 1 h",5 n (%)
same,"Overall ECG result Abnormal, NCS","5 mg (N = 6), 2 h",3 n (%)
same,Overall ECG result Normal,"5 mg (N = 6), 2 h",3 n (%)
same,"Overall ECG result Abnormal, NCS","5 mg (N = 6), 3 h",2 n (%)
same,Overall ECG result Normal,"5 mg (N = 6), 3 h",4 n (%)
same,"Overall ECG result Abnormal, NCS","5 mg (N = 6), 5 h",2 n (%)
same,Overall ECG result Normal,"5 mg (N = 6), 5 h",4 n (%)
same,"Overall ECG result Abnormal, NCS","5 mg (N = 6), 8 h",0 n (%)
same,Overall ECG result Normal,"5 mg (N = 6), 8 h",6 n (%)
same,"Overall ECG result Abnormal, NCS","5 mg (N = 6), 12 h",0 n (%)
same,Overall ECG result Normal,"5 mg (N = 6), 12 h",6 n (%)
same,"Overall ECG result Abnormal, NCS","5 mg (N = 6), 24 h",1 n (%)
same,Overall ECG result Normal,"5 mg (N = 6), 24 h",5 n (%)
same,"Overall ECG result Abnormal, NCS","5 mg (N = 6), 48 h",0 n (%)
same,Overall ECG result Normal,"5 mg (N = 6), 48 h",6 n (%)
same,"Overall ECG result Abnormal, NCS","5 mg (N = 6), 72 h",0 n (%)
same,Overall ECG result Normal,"5 mg (N = 6), 72 h",6 n (%)
same,"Overall ECG result Abnormal, NCS","5 mg (N = 6), Visit 3",1 n (%)
same,Overall ECG result Normal,"5 mg (N = 6), Visit 3",5 n (%)
same,QTcF Average,"5 mg, subject 9002, 5 h",445 ms
same,QTcF Reading 1,"5 mg, subject 9002, 5 h",451 ms
same,QTcF Reading 2,"5 mg, subject 9002, 5 h",446 ms
same,QTcF Reading 3,"5 mg, subject 9002, 5 h",439 ms
same,QTcF Average,"5 mg, subject 9003, 1 h",420 ms
same,QTcF Reading 1,"5 mg, subject 9003, 1 h",437 ms
same,QTcF Reading 2,"5 mg, subject 9003, 1 h",411 ms
same,QTcF Reading 3,"5 mg, subject 9003, 1 h",412 ms
same,QTcF Average,"5 mg, subject 9003, 2 h",432 ms
same,QTcF Reading 1,"5 mg, subject 9003, 2 h",440 ms
same,QTcF Reading 2,"5 mg, subject 9003, 2 h",434 ms
same,QTcF Reading 3,"5 mg, subject 9003, 2 h",421 ms
same,QTcF Average,"5 mg, subject 9003, 3 h",429 ms
same,QTcF Reading 1,"5 mg, subject 9003, 3 h",424 ms
same,QTcF Reading 2,"5 mg, subject 9003, 3 h",427 ms
same,QTcF Reading 3,"5 mg, subject 9003, 3 h",435 ms
same,QTcF Average,"5 mg, subject 9003, 5 h",432 ms
same,QTcF Reading 1,"5 mg, subject 9003, 5 h",434 ms
same,QTcF Reading 2,"5 mg, subject 9003, 5 h",435 ms
same,QTcF Reading 3,"5 mg, subject 9003, 5 h",426 ms
same,QTcF Average,"5 mg, subject 9009, 2 h",420 ms
same,QTcF Reading 1,"5 mg, subject 9009, 2 h",413 ms
same,QTcF Reading 2,"5 mg, subject 9009, 2 h",431 ms
same,QTcF Reading 3,"5 mg, subject 9009, 2 h",417 ms
same,"Overall ECG result Abnormal, NCS","20 mg (N = 6), 0.5 h",1 (16.7) n (%)
same,Overall ECG result Normal,"20 mg (N = 6), 0.5 h",5 (83.3) n (%)
same,"Overall ECG result Abnormal, NCS","20 mg (N = 6), 1 h",1 (16.7) n (%)
same,Overall ECG result Normal,"20 mg (N = 6), 1 h",5 (83.3) n (%)
same,"Overall ECG result Abnormal, NCS","20 mg (N = 6), 2 h",2 (33.3) n (%)
same,Overall ECG result Normal,"20 mg (N = 6), 2 h",4 (66.7) n (%)
same,"Overall ECG result Abnormal, NCS","20 mg (N = 6), 3 h",2 (33.3) n (%)
same,Overall ECG result Normal,"20 mg (N = 6), 3 h",4 (66.7) n (%)
same,"Overall ECG result Abnormal, NCS","20 mg (N = 6), 5 h",1 (16.7) n (%)
same,Overall ECG result Normal,"20 mg (N = 6), 5 h",5 (83.3) n (%)
same,"Overall ECG result Abnormal, NCS","20 mg (N = 6), 8 h",1 (16.7) n (%)
same,Overall ECG result Normal,"20 mg (N = 6), 8 h",5 (83.3) n (%)
same,"Overall ECG result Abnormal, NCS","20 mg (N = 6), 12 h",1 (16.7) n (%)
same,Overall ECG result Normal,"20 mg (N = 6), 12 h",5 (83.3) n (%)
same,"Overall ECG result Abnormal, NCS","20 mg (N = 6), 24 h",1 (16.7) n (%)
same,Overall ECG result Normal,"20 mg (N = 6), 24 h",5 (83.3) n (%)
same,"Overall ECG result Abnormal, NCS","20 mg (N = 6), 48 h",2 (33.3) n (%)
same,Overall ECG result Normal,"20 mg (N = 6), 48 h",4 (66.7) n (%)
same,"Overall ECG result Abnormal, NCS","20 mg (N = 6), 72 h",1 (16.7) n (%)
same,Overall ECG result Normal,"20 mg (N = 6), 72 h",5 (83.3) n (%)
same,"Overall ECG result Abnormal, NCS","20 mg (N = 6), Visit 3",0 n (%)
same,Overall ECG result Normal,"20 mg (N = 6), Visit 3",6 (100) n (%)
same,"Overall ECG result Abnormal, NCS","60 mg (N = 6), 0.5 h",1 (16.7) n (%)
same,Overall ECG result Normal,"60 mg (N = 6), 0.5 h",5 (83.3) n (%)
same,"Overall ECG result Abnormal, NCS","60 mg (N = 6), 1 h",2 (33.3) n (%)
same,Overall ECG result Normal,"60 mg (N = 6), 1 h",4 (66.7) n (%)
same,"Overall ECG result Abnormal, NCS","60 mg (N = 6), 2 h",2 (33.3) n (%)
same,Overall ECG result Normal,"60 mg (N = 6), 2 h",4 (66.7) n (%)
same,"Overall ECG result Abnormal, NCS","60 mg (N = 6), 3 h",1 (16.7) n (%)
same,Overall ECG result Normal,"60 mg (N = 6), 3 h",5 (83.3) n (%)
same,"Overall ECG result Abnormal, NCS","60 mg (N = 6), 5 h",1 (16.7) n (%)
same,Overall ECG result Normal,"60 mg (N = 6), 5 h",5 (83.3) n (%)
same,"Overall ECG result Abnormal, NCS","60 mg (N = 6), 8 h",2 (33.3) n (%)
same,Overall ECG result Normal,"60 mg (N = 6), 8 h",4 (66.7) n (%)
same,"Overall ECG result Abnormal, NCS","60 mg (N = 6), 12 h",3 (50.0) n (%)
same,Overall ECG result Normal,"60 mg (N = 6), 12 h",3 (50.0) n (%)
same,"Overall ECG result Abnormal, NCS","60 mg (N = 6), 24 h",2 (33.3) n (%)
same,Overall ECG result Normal,"60 mg (N = 6), 24 h",4 (66.7) n (%)
same,"Overall ECG result Abnormal, NCS","60 mg (N = 6), 48 h",2 (33.3) n (%)
same,Overall ECG result Normal,"60 mg (N = 6), 48 h",4 (66.7) n (%)
same,"Overall ECG result Abnormal, NCS","60 mg (N = 6), 72 h",1 (16.7) n (%)
same,Overall ECG result Normal,"60 mg (N = 6), 72 h",5 (83.3) n (%)
same,"Overall ECG result Abnormal, NCS","60 mg (N = 6), Visit 3",1 (16.7) n (%)
same,Overall ECG result Normal,"60 mg (N = 6), Visit 3",5 (83.3) n (%)
same,"Overall ECG result Abnormal, NCS","100 mg (N = 6), 0.5 h",1 n (%)
same,Overall ECG result Normal,"100 mg (N = 6), 0.5 h",5 n (%)
same,"Overall ECG result Abnormal, NCS","100 mg (N = 6), 1 h",0 n (%)
same,Overall ECG result Normal,"100 mg (N = 6), 1 h",6 n (%)
same,"Overall ECG result Abnormal, NCS","100 mg (N = 6), 2 h",1 n (%)
same,Overall ECG result Normal,"100 mg (N = 6), 2 h",5 n (%)
same,"Overall ECG result Abnormal, NCS","100 mg (N = 6), 3 h",3 n (%)
same,Overall ECG result Normal,"100 mg (N = 6), 3 h",3 n (%)
same,"Overall ECG result Abnormal, NCS","100 mg (N = 6), 5 h",1 n (%)
same,Overall ECG result Normal,"100 mg (N = 6), 5 h",5 n (%)
same,"Overall ECG result Abnormal, NCS","100 mg (N = 6), 8 h",1 n (%)
same,Overall ECG result Normal,"100 mg (N = 6), 8 h",5 n (%)
same,"Overall ECG result Abnormal, NCS","100 mg (N = 6), 12 h",0 n (%)
same,Overall ECG result Normal,"100 mg (N = 6), 12 h",6 n (%)
same,"Overall ECG result Abnormal, NCS","100 mg (N = 6), 24 h",1 n (%)
same,Overall ECG result Normal,"100 mg (N = 6), 24 h",5 n (%)
same,"Overall ECG result Abnormal, NCS","100 mg (N = 6), 48 h",1 n (%)
same,Overall ECG result Normal,"100 mg (N = 6), 48 h",5 n (%)
same,"Overall ECG result Abnormal, NCS","100 mg (N = 6), 72 h",0 n (%)
same,Overall ECG result Normal,"100 mg (N = 6), 72 h",6 n (%)
same,"Overall ECG result Abnormal, NCS","100 mg (N = 6), Visit 3",0 n (%)
same,Overall ECG result Normal,"100 mg (N = 6), Visit 3",6 n (%)
same,QTcF Average,"100 mg, subject 9056, 0.5 h",425 ms
